Experimental data published in patent US20140051762A1, “POLYCATIONIC COMPOUNDS AND USES THEREOF” (priority 2004, published 2014).
Values joined by “and” are separate entries in the source; they are usually repeats but may differ in a detail not shown here. Equal values may be shown once.

Columns and labels:
[1] = tested on: Factor Xa; assay: Factor Xa inhibition EC50 (fixed heparin concentrations, different amounts of heparin antagonist); assay type: biochemical; settings: read-out: FactorXa Inhibition: EC50
Experimental: (§1) The following example illustrates the heparin antagonistic effects of polycationic compounds of the present invention. To determine the anti-heparin activity of the polycationic compounds an assay measuring the percent inhibition using a fixed concentration of polycationic compound or concentrations of polycationic compounds causing lysis of 50% of human red blood cells were conducted.
(§2) 10 IU of anti-thrombin was dissolved in 10 ml of buffer, resulting in a 1 IU/ml stock solution (250×) of the anti-thrombin. The 1 IU/ml (250×) stock solution of anti-thrombin and a 336 mM stock solution of NaCl were diluted into a total volume of 50 μl buffer so that the final anti-thrombin concentration was 0.004 IU/sample well and the NaCl was 150 mM/sample well. 1 μl of the compound to be tested, final concentration 10 μg/ml (corresponding to 0.5 logarithmic antagonist dilution) is added to the sample well. The samples are mixed and allowed to incubate at room temperature for 20 minutes. 50 μl of factor Xa dissolved in buffer is added to the sample well to a final concentration of 0.14 knat/well (2 μl of the 7.1 kna/1 ml stock solution to a final sample well buffer volume of 100 μl). The samples were mixed and further incubated at room temperature for 10 minutes. 10 μl of a 4 mM stock solution of the substrate S-2765 was added to each sample well for a final concentration of 0.4 mM in each sample well. The samples were mixed and hydrolyses of the chromogenic substrate Z-D-Arg-Gly-Arg-pNA (S-2765), thus liberating the chromophoric group pNA (p-nitroaniline), was monitored at 405 nm. The samples were mixed every 30 seconds to maintain a uniform mixture. ThermoLabsystems Multiskan Spectrum spectrophotometer was used to measure the absorbance spectrums. The increase in absorbance was proportional to the enzyme (factor Xa) activity. The % inhibition of factor Xa was determined using a standard curve.
(§3) Factor Xa Inhibition: EC50. To determine the concentration of polycationic compound that causes about 50% […], fixed heparin concentrations were used and different amounts of heparin antagonists were added.

[2] = tested on: human red blood cells; assay: lysis of 50% of human red blood cells (HC50); assay type: cell-based
Experimental: as §1, §3

[3] = tested on: Factor Xa; assay: anti-heparin assay, % Factor Xa inhibition at single concentration (chromogenic substrate S-2765); assay type: biochemical; settings: Single concentration (10 ug/ml)
Experimental: as §1, §2

[4] = tested on: FGF2-induced angiogenesis in the CAM model; assay: FGF2-induced angiogenesis in the chick chorioallantoic membrane (CAM) model; assay type: in vivo, chick embryo; settings: for % inhibition ± SEM / Branch pts ± SEM: Table 3; for Mean % inhibition ± SEM: Table 4, n = 8
Experimental: The following example illustrates the anti-angiogenic effect of exemplary polycationic compounds of the present invention. Ten-day old embryos were purchased from Spafas, Inc. (Preston, Conn.) and were incubated at 37° C. with 55% relative humidity. In the dark with the help of a candling lamp, a small hole was punctured in the shell concealing the air sac with a hypodermic needle. A second hole was punctured in the shell on the broadside of the egg directly over an avascular portion of the embryonic membrane, as observed during candling. A false air sac was created beneath the second hole by the application of negative pressure to the first hole, which caused the chorioallantoic membrane (CAM) to separate from the shell. A window, approximately 1.0 cm^2, was cut in the shell over the dropped CAM with the use of a small crafts grinding wheel (Dremel, Division of Emerson Electric Company Racine, Wis.) which allowed direct access to the underlying CAM. Filter disks of #1 filter paper (Whatman International, United Kingdom) were soaked in 3 mg/mL cortisone acetate (Sigma, St. Louis, Mo.) in a solution of 95% ethanol and water and subsequently air dried under sterile conditions. FGF2 (Life Technologies, Gaithersburg, Md.) was used to grow vessels on the CAMs of 10 day old chick embryos. Sterile filter disks adsorbed with FGF2 dissolved in PBS at 1μg/mL were placed on growing CAMs. […] At 24 h, test compounds or control vehicle was added directly to CAM topically.
(§4) CAM tissue directly beneath FGF2-saturated filter disk was resected from embryos treated 48 hours prior with test compound or control. Tissues were washed three times with PBS. Sections were placed in a 35-mm petri dish (Nalgen Nunc, Rochester, N.Y.) and examined under a SV6 stereomicroscope (Karl Zeiss, Thornwood, N.Y.) at 50× magnification. Digital images of CAM sections adjacent to filters were collected using a 3-CCD color video camera system (Toshiba America, New York, N.Y.) and analyzed using Image-Pro Plus software (Media Cybernetics, Silver Spring, Md.). Table 4 contains the number of vessel branch points contained in a circular region equal to the area of a filter disk counted for each section.
as §4, with “48 h” for “48 hours”, “with” for “with test”, “dish (Nalge” for “dish (Nalgen”, “analyzed with the” for “analyzed using”, “Md.).” for “Md.). Table 4 contains the number of vessel branch points contained in a circular region equal to the area of a filter disk counted for each section.”

[5] = tested on: heparin; assay: effect on coagulation time and heparin efficacy
Experimental: The following example illustrates the effect of a polycationic compound of the present invention on coagulation time. The anti-heparin assay as described herein was used. The assay contained either 1 mg/L, 2 mg/L or 4 mg/I of heparin and increasing amounts of Compound 26 was added.

[6] = Heparin 1 mg/L, Compound 26 1.25 mg/L
[7] = Heparin 1 mg/L, Compound 26 2 mg/L
[8] = Heparin 1 mg/L, Compound 26 2.5 mg/L
[9] = Heparin 1 mg/L, Compound 26 4 mg/L
[10] = Heparin 2 mg/L, Compound 26 2.5 mg/L
[11] = Heparin 2 mg/L, Compound 26 4 mg/L
[12] = Heparin 2 mg/L, Compound 26 5 mg/L
[13] = Heparin 2 mg/L, Compound 26 6 mg/L
[14] = Heparin 2 mg/L, Compound 26 10 mg/L
[15] = Heparin 4 mg/L, Compound 26 2.5 mg/L
[16] = Heparin 4 mg/L, Compound 26 4 mg/L
[17] = Heparin 4 mg/L, Compound 26 5 mg/L
[18] = Heparin 4 mg/L, Compound 26 6 mg/L
[19] = Heparin cell empty (4 mg/L from line above), Compound 26 10 mg/L

`CC(C)(C)c1cc(NC(=O)c2cccc(C(=O)Nc3cc(C(C)(C)C)cc(NC(=O)[C@H](N)CCCNC(=N)N)c3SCCN)c2)c(SCCN)c(NC(=O)[C@H](N)CCCNC(=N)N)c1` [Compound 7] was tested, and the EC50 [1] was 3.7 µM, the HC50 [2] was 715 μg/ml and 519 μM and the “% FactorXa Inhibition” value [3] was 5.506%.

For `NCCOc1cc(OCCN)c(C(=O)Nc2cccc(N)c2SCCN)cc1C(=O)Nc1cccc(N)c1SCCN` [Compound 25], the EC50 [1] was 5.3 µM, the HC50 [2] was >2,000 μg/ml and the “% FactorXa Inhibition” value [3] was 0%.

For `N=C(N)NCCC[C@@H](N)C(=O)Nc1cccc(NC(=O)c2cc(C(=O)Nc3cccc(NC(=O)[C@H](N)CCCNC(=N)N)c3SCCN)c(OCCN)cc2OCCN)c1SCCN` [Compound 26], the “% inhibition ± SEM” value ([4]; 1.0 ug + FGF2 (1 ug)) was 55 ± 8%, the “Branch pts ± SEM” value ([4]; 1.0 ug + FGF2 (1 ug)) was 123 ± 7 and the EC50 [1] was 2 µM. For the same molecule, the “Coagulation Time” value [5, 6] was 42.8 s, the “Heparin Efficacy” value [5, 6] was 0.6506 and the “Coagulation Time” value [5, 7] was 33.4 s. The “Heparin Efficacy” value [5, 7] was 0.2402, the “Coagulation Time” value [5, 8] was 31.3 s and the “Heparin Efficacy” value [5, 8] was 0.1485. For the same molecule, the “Coagulation Time” value [5, 9] was 27.9 s, the “Heparin Efficacy” value [5, 9] was −1.67E−08 and the “Coagulation Time” value [5, 10] was 40.2 s. The “Heparin Efficacy” value [5, 10] was 0.1108, the “Coagulation Time” value [5, 11] was 33.9 s and the “Heparin Efficacy” value [5, 11] was 0.03149. The “Coagulation Time” value [5, 12] was 31.9 s, the “Heparin Efficacy” value [5, 12] was 0.006297 and the “Coagulation Time” value [5, 13] was 31.8 s. For the same molecule, the “Heparin Efficacy” value [5, 13] was 0.005038, the “Coagulation Time” value [5, 14] was 34.4 s and the “Heparin Efficacy” value [5, 14] was 0.03778. For the same molecule, the “Coagulation Time” value [5, 15] was 124.8 s, the “Heparin Efficacy” value [5, 15] was 0.513 and the “Coagulation Time” value [5, 16] was 87.4 s. The “Heparin Efficacy” value [5, 16] was 0.3108, the “Coagulation Time” value [5, 17] was 55.8 s and the “Heparin Efficacy” value [5, 17] was 0.14. The “Coagulation Time” value [5, 18] was 35.4 s, the “Heparin Efficacy” value [5, 18] was 0.02973 and the “Coagulation Time” value [5, 19] was 29.9 s. The “Heparin Efficacy” value [5, 19] was −2.06E−09, the “effect on coagulation time (in words)” value ([5]; varying concentrations of heparin) was “decreased the coagulation time” and the HC50 [2] was >2,000 μg/ml. The “% FactorXa Inhibition” value [3] was 48.14%.

With `N=C(N)NCCOc1cc(OCCNC(=N)N)c(C(=O)Nc2cccc(N)c2SCCNC(=N)N)cc1C(=O)Nc1cccc(N)c1SCCNC(=N)N` [Compound 27] the “% inhibition ± SEM” value ([4]; 0.1 ug + FGF2 (1 ug)) was 34 ± 9%, the “Branch pts ± SEM” value ([4]; 0.1 ug + FGF2 (1 ug)) was 144 ± 9 and the EC50 [1] was 9.7 µM. The HC50 [2] was >2,000 μg/ml and the “% FactorXa Inhibition” value [3] was 8.886%.

`COc1ccc(NC(=O)C(CCCCN)NC(=O)c2cc(NC(=O)C(CCCCN)NC(=O)c3cc(NC(=O)C(CCCCN)NC(=O)c4cc(NC(=O)C(N)CCCCN)ccc4OC)ccc3OC)ccc2OC)cc1C(N)=O` (stereo not shown) [Compound 50] was tested, and the “Mean % inhibition ± SEM” value ([4]; 1.0 ug + FGF2 (1 ug)) was 21 ± 9%, the “Mean % inhibition ± SEM” value ([4]; 3.0 ug + FGF2 (1 ug)) was 42 ± 8% and the “Mean % inhibition ± SEM” value ([4]; 10 ug + FGF2 (1 ug)) was 66 ± 7%. The HC50 [2] was 637 μg/ml and 377 μM.
